{
  "source": "the supplement of paper PMC4862054",
  "details_in_all_cases": "incubation time: 72 h",
  "key": {"HDQ-P1 [1]": {"test_system": "HDQ-P1", "assay": "normalised response (% of control), CellTiter-Glo; higher = more viable cells (100 = DMSO, 0 = benzethonium chloride kill control)", "outline": "(§1)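 Breast cancer cell lines were exposed for 72 h in 384-well plates to compound at 5 concentrations, 10-fold apart, covering a 10,000-fold range fixed for each compound. Plates were read for CellTox Green fluorescence and CellTiter-Glo luminescence and normalised to 0.1 % DMSO (100) and a positive kill control (0). Each value is the normalised signal at one concentration of the series.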"}, "MDA-MB-436 [2]": {"test_system": "MDA-MB-436", "assay": "normalised response (% of control), CellTiter-Glo; higher = more viable cells (100 = DMSO, 0 = benzethonium chloride kill control)", "outline": "as §1"}, "MFM-223 [3]": {"test_system": "MFM-223", "assay": "normalised response (% of control), CellTiter-Glo; higher = more viable cells (100 = DMSO, 0 = benzethonium chloride kill control)", "outline": "as §1"}, "BT-474 [4]": {"test_system": "BT-474", "assay": "normalised response (% of control), CellTiter-Glo; higher = more viable cells (100 = DMSO, 0 = benzethonium chloride kill control)", "outline": "as §1"}, "CAL-85-1 [5]": {"test_system": "CAL-85-1", "assay": "normalised response (% of control), CellTiter-Glo; higher = more viable cells (100 = DMSO, 0 = benzethonium chloride kill control)", "outline": "as §1"}, "BT-549 [6]": {"test_system": "BT-549", "assay": "normalised response (% of control), CellTiter-Glo; higher = more viable cells (100 = DMSO, 0 = benzethonium chloride kill control)", "outline": "as §1"}, "CAL-148 [7]": {"test_system": "CAL-148", "assay": "normalised response (% of control), CellTiter-Glo; higher = more viable cells (100 = DMSO, 0 = benzethonium chloride kill control)", "outline": "as §1"}, "MDA-MB-453 [8]": {"test_system": "MDA-MB-453", "assay": "normalised response (% of control), CellTiter-Glo; higher = more viable cells (100 = DMSO, 0 = benzethonium chloride kill control)", "outline": "as §1"}, "MDA-MB-231 [9]": {"test_system": "MDA-MB-231", "assay": "normalised response (% of control), CellTiter-Glo; higher = more viable cells (100 = DMSO, 0 = benzethonium chloride kill control)", "outline": "as §1"}, "HCC1599 [10]": {"test_system": "HCC1599", "assay": "normalised response (% of control), CellTiter-Glo; higher = more viable cells (100 = DMSO, 0 = benzethonium chloride kill control)", "outline": "as §1"}, "CAL-120 [11]": {"test_system": "CAL-120", "assay": "normalised response (% of control), CellTiter-Glo; higher = more viable cells (100 = DMSO, 0 = benzethonium chloride kill control)", "outline": "as §1"}, "CAL-51 [12]": {"test_system": "CAL-51", "assay": "normalised response (% of control), CellTiter-Glo; higher = more viable cells (100 = DMSO, 0 = benzethonium chloride kill control)", "outline": "as §1"}, "MDA-MB-468 [13]": {"test_system": "MDA-MB-468", "assay": "normalised response (% of control), CellTiter-Glo; higher = more viable cells (100 = DMSO, 0 = benzethonium chloride kill control)", "outline": "as §1"}, "MCF-10A [14]": {"test_system": "MCF-10A", "assay": "normalised response (% of control), CellTiter-Glo; higher = more viable cells (100 = DMSO, 0 = benzethonium chloride kill control)", "outline": "as §1"}, "DU-4475 [15]": {"test_system": "DU-4475", "assay": "normalised response (% of control), CellTiter-Glo; higher = more viable cells (100 = DMSO, 0 = benzethonium chloride kill control)", "outline": "as §1"}, "HCC1937 [16]": {"test_system": "HCC1937", "assay": "normalised response (% of control), CellTiter-Glo; higher = more viable cells (100 = DMSO, 0 = benzethonium chloride kill control)", "outline": "as §1"}, "SK-BR-3": {"test_system": "SK-BR-3", "assay": "normalised response (% of control), CellTiter-Glo; higher = more viable cells (100 = DMSO, 0 = benzethonium chloride kill control)", "outline": "as §1"}, "Hs578T [17]": {"test_system": "Hs578T", "assay": "normalised response (% of control), CellTiter-Glo; higher = more viable cells (100 = DMSO, 0 = benzethonium chloride kill control)", "outline": "as §1"}, "HCC1143 [18]": {"test_system": "HCC1143", "assay": "normalised response (% of control), CellTiter-Glo; higher = more viable cells (100 = DMSO, 0 = benzethonium chloride kill control)", "outline": "as §1"}, "HDQ-P1 [19]": {"test_system": "HDQ-P1", "assay": "normalised response (% of control), CellTox Green; higher = less cell death (100 = DMSO, 0 = benzethonium chloride kill control)", "outline": "as §1"}, "MDA-MB-436 [20]": {"test_system": "MDA-MB-436", "assay": "normalised response (% of control), CellTox Green; higher = less cell death (100 = DMSO, 0 = benzethonium chloride kill control)", "outline": "as §1"}, "MFM-223 [21]": {"test_system": "MFM-223", "assay": "normalised response (% of control), CellTox Green; higher = less cell death (100 = DMSO, 0 = benzethonium chloride kill control)", "outline": "as §1"}, "BT-474 [22]": {"test_system": "BT-474", "assay": "normalised response (% of control), CellTox Green; higher = less cell death (100 = DMSO, 0 = benzethonium chloride kill control)", "outline": "as §1"}, "CAL-85-1 [23]": {"test_system": "CAL-85-1", "assay": "normalised response (% of control), CellTox Green; higher = less cell death (100 = DMSO, 0 = benzethonium chloride kill control)", "outline": "as §1"}, "BT-549 [24]": {"test_system": "BT-549", "assay": "normalised response (% of control), CellTox Green; higher = less cell death (100 = DMSO, 0 = benzethonium chloride kill control)", "outline": "as §1"}, "CAL-148 [25]": {"test_system": "CAL-148", "assay": "normalised response (% of control), CellTox Green; higher = less cell death (100 = DMSO, 0 = benzethonium chloride kill control)", "outline": "as §1"}, "MDA-MB-453 [26]": {"test_system": "MDA-MB-453", "assay": "normalised response (% of control), CellTox Green; higher = less cell death (100 = DMSO, 0 = benzethonium chloride kill control)", "outline": "as §1"}, "MDA-MB-231 [27]": {"test_system": "MDA-MB-231", "assay": "normalised response (% of control), CellTox Green; higher = less cell death (100 = DMSO, 0 = benzethonium chloride kill control)", "outline": "as §1"}, "HCC1599 [28]": {"test_system": "HCC1599", "assay": "normalised response (% of control), CellTox Green; higher = less cell death (100 = DMSO, 0 = benzethonium chloride kill control)", "outline": "as §1"}, "CAL-120 [29]": {"test_system": "CAL-120", "assay": "normalised response (% of control), CellTox Green; higher = less cell death (100 = DMSO, 0 = benzethonium chloride kill control)", "outline": "as §1"}, "CAL-51 [30]": {"test_system": "CAL-51", "assay": "normalised response (% of control), CellTox Green; higher = less cell death (100 = DMSO, 0 = benzethonium chloride kill control)", "outline": "as §1"}, "MDA-MB-468 [31]": {"test_system": "MDA-MB-468", "assay": "normalised response (% of control), CellTox Green; higher = less cell death (100 = DMSO, 0 = benzethonium chloride kill control)", "outline": "as §1"}, "MCF-10A [32]": {"test_system": "MCF-10A", "assay": "normalised response (% of control), CellTox Green; higher = less cell death (100 = DMSO, 0 = benzethonium chloride kill control)", "outline": "as §1"}, "DU-4475 [33]": {"test_system": "DU-4475", "assay": "normalised response (% of control), CellTox Green; higher = less cell death (100 = DMSO, 0 = benzethonium chloride kill control)", "outline": "as §1"}, "HCC1937 [34]": {"test_system": "HCC1937", "assay": "normalised response (% of control), CellTox Green; higher = less cell death (100 = DMSO, 0 = benzethonium chloride kill control)", "outline": "as §1"}, "Hs578T [35]": {"test_system": "Hs578T", "assay": "normalised response (% of control), CellTox Green; higher = less cell death (100 = DMSO, 0 = benzethonium chloride kill control)", "outline": "as §1"}, "HCC1143 [36]": {"test_system": "HCC1143", "assay": "normalised response (% of control), CellTox Green; higher = less cell death (100 = DMSO, 0 = benzethonium chloride kill control)", "outline": "as §1"}},
  "data": [
    {"smiles": "CO[C@H]1C[C@@H]2CC[C@@H](C)[C@@](O)(O2)C(=O)C(=O)N2CCCC[C@H]2C(=O)O[C@H]([C@H](C)C[C@@H]2CC[C@@H](OCCO)[C@H](OC)C2)CC(=O)[C@H](C)/C=C(\\C)[C@@H](O)[C@@H](OC)C(=O)[C@H](C)C[C@H](C)/C=C/C=C/C=C/1C", "note": "[Everolimus] (10 nM)", "values": [
      {"measurement": "normalised response", "setting": "HDQ-P1 [1]", "result": 78.7, "unit": "%"},
      {"measurement": "normalised response", "setting": "MDA-MB-436 [2]", "result": 77.8, "unit": "%"},
      {"measurement": "normalised response", "setting": "MFM-223 [3]", "result": 62.6, "unit": "%"},
      {"measurement": "normalised response", "setting": "BT-474 [4]", "result": 80.7, "unit": "%"},
      {"measurement": "normalised response", "setting": "CAL-85-1 [5]", "result": 67.1, "unit": "%"},
      {"measurement": "normalised response", "setting": "BT-549 [6]", "result": 64.9, "unit": "%"},
      {"measurement": "normalised response", "setting": "CAL-148 [7]", "result": 51.9, "unit": "%"},
      {"measurement": "normalised response", "setting": "MDA-MB-453 [8]", "result": 55.2, "unit": "%"},
      {"measurement": "normalised response", "setting": "MDA-MB-231 [9]", "result": 85.7, "unit": "%"},
      {"measurement": "normalised response", "setting": "HCC1599 [10]", "result": 88.8, "unit": "%"},
      {"measurement": "normalised response", "setting": "CAL-120 [11]", "result": 64.9, "unit": "%"},
      {"measurement": "normalised response", "setting": "CAL-51 [12]", "result": 61.6, "unit": "%"},
      {"measurement": "normalised response", "setting": "MDA-MB-468 [13]", "result": 52.1, "unit": "%"},
      {"measurement": "normalised response", "setting": "MCF-10A [14]", "result": 79.2, "unit": "%"},
      {"measurement": "normalised response", "setting": "DU-4475 [15]", "result": 68.2, "unit": "%"},
      {"measurement": "normalised response", "setting": "HCC1937 [16]", "result": 69.7, "unit": "%"},
      {"measurement": "normalised response", "setting": "SK-BR-3", "result": 53.7, "unit": "%"},
      {"measurement": "normalised response", "setting": "Hs578T [17]", "result": 71.9, "unit": "%"},
      {"measurement": "normalised response", "setting": "HCC1143 [18]", "result": 62.6, "unit": "%"},
      {"measurement": "normalised response", "setting": "HDQ-P1 [19]", "result": 105, "unit": "%"},
      {"measurement": "normalised response", "setting": "MDA-MB-436 [20]", "result": 81.7, "unit": "%"},
      {"measurement": "normalised response", "setting": "MFM-223 [21]", "result": 71.1, "unit": "%"},
      {"measurement": "normalised response", "setting": "BT-474 [22]", "result": 99.8, "unit": "%"},
      {"measurement": "normalised response", "setting": "CAL-85-1 [23]", "result": 109, "unit": "%"},
      {"measurement": "normalised response", "setting": "BT-549 [24]", "result": 51, "unit": "%"},
      {"measurement": "normalised response", "setting": "CAL-148 [25]", "result": 88, "unit": "%"},
      {"measurement": "normalised response", "setting": "MDA-MB-453 [26]", "result": 104, "unit": "%"},
      {"measurement": "normalised response", "setting": "MDA-MB-231 [27]", "result": 103, "unit": "%"},
      {"measurement": "normalised response", "setting": "HCC1599 [28]", "result": 91.6, "unit": "%"},
      {"measurement": "normalised response", "setting": "CAL-120 [29]", "result": 101, "unit": "%"},
      {"measurement": "normalised response", "setting": "CAL-51 [30]", "result": 97.5, "unit": "%"},
      {"measurement": "normalised response", "setting": "MDA-MB-468 [31]", "result": 178, "unit": "%"},
      {"measurement": "normalised response", "setting": "MCF-10A [32]", "result": 106, "unit": "%"},
      {"measurement": "normalised response", "setting": "DU-4475 [33]", "result": 96, "unit": "%"},
      {"measurement": "normalised response", "setting": "HCC1937 [34]", "result": 114, "unit": "%"},
      {"measurement": "normalised response", "setting": "Hs578T [35]", "result": 85.6, "unit": "%"},
      {"measurement": "normalised response", "setting": "HCC1143 [36]", "result": 109, "unit": "%"}
    ]}
  ]
}
